Reference: patent US11981658B2, “Substituted aminopyridine compounds as EGFR inhibitors” (YUHAN CORPORATION, priority 2021, dated 2024)
Where two headings read alike, the source gives them in different places.

What was measured:
EGFR Del19/T790M/C797S = EGFR Del19/T790M/C797S (Homo sapiens, UniProt P00533, C797S/DEL746-750/T790M); experiment: Biochemical EGFR kinase inhibition assay (Lance Ultra TR-FRET), triple mutant del19/T790M/C797S
Method in brief: (§1)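 Enzyme reactions lasted 1 hour at room temperature with test compounds between 0.003 and 10 μM, followed by 10 mM EDTA quench.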

EGFR Del19/C797S = EGFR Del19/C797S (Homo sapiens, UniProt P00533, C797S/DEL746-750); experiment: Biochemical EGFR kinase inhibition assay (Lance Ultra TR-FRET), double mutant del19/C797S
Method in brief: as §1

EGFR wildtype (WT) = EGFR wildtype (WT) (Homo sapiens, UniProt P00533); experiment: Biochemical EGFR kinase inhibition assay (Lance Ultra TR-FRET), wildtype
Method in brief: as §1

EGFR L858R/T790M/C797S = EGFR L858R/T790M/C797S (Homo sapiens, UniProt P00533, C797S/L858R/T790M); experiment: Biochemical EGFR kinase inhibition assay (Lance Ultra TR-FRET), triple mutant L858R/T790M/C797S
Method in brief: as §1

EGFR L858R/C797S = EGFR L858R/C797S (Homo sapiens, UniProt P00533, C797S/L858R); experiment: Biochemical EGFR kinase inhibition assay (Lance Ultra TR-FRET), double mutant L858R/C797S
Method in brief: as §1

[1] = IC50 Del19/T790M/C797S (nM), 100 μM ATP
[2] = Km ATP, read-out: IC50 Del19/T790M/C797S (nM), Km ATP
[3] = IC50 Del19/C797S (nM), 100 μM ATP
[4] = Km ATP, read-out: IC50 Del19/C797S (nM), Km ATP
[5] = Km ATP, read-out: IC50 WT (nM), Km ATP
[6] = IC50 L858R/T790M/C797S (nM), 100 μM ATP
[7] = Km ATP, read-out: IC50 L858R/T790M/C797S (nM), Km ATP
[8] = IC50 L858R/C797S (nM), 100 μM ATP
[9] = Km ATP, read-out: IC50 L858R/C797S (nM), Km ATP

Chain of EGFR Del19/T790M/C797S (P00533 with tags, fused parts or gaps DEL746-750/T790M/C797S): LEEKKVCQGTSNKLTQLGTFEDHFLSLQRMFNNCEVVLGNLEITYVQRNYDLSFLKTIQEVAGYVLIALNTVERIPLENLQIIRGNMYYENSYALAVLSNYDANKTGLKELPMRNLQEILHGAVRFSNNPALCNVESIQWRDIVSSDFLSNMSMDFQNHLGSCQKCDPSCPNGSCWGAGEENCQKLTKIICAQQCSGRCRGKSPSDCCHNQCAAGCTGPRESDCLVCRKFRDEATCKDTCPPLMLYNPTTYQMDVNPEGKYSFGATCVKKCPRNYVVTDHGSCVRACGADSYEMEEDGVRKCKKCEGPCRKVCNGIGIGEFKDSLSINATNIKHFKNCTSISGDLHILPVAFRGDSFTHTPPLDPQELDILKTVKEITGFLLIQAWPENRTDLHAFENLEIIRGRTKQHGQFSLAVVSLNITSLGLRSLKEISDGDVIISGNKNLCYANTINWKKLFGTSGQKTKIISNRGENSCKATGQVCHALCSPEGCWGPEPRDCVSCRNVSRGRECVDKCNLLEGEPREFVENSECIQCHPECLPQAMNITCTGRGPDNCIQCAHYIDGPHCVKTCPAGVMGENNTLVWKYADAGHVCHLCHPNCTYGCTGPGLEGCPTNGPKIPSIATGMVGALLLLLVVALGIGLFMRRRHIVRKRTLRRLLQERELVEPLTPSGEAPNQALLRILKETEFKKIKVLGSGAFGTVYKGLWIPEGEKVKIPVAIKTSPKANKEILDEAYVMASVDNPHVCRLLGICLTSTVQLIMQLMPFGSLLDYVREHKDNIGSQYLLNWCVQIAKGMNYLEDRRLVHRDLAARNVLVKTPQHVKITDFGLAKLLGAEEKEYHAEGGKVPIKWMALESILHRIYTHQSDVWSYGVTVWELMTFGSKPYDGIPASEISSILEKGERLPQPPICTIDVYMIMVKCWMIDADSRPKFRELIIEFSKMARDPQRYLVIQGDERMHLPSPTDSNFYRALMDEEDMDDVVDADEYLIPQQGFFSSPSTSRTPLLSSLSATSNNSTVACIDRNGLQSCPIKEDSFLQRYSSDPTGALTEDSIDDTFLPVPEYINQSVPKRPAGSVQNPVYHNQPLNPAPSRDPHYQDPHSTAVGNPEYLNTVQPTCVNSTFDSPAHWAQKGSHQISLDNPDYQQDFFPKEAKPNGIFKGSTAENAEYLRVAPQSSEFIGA
Chain of EGFR L858R/C797S (P00533 25-1210 C797S/L858R): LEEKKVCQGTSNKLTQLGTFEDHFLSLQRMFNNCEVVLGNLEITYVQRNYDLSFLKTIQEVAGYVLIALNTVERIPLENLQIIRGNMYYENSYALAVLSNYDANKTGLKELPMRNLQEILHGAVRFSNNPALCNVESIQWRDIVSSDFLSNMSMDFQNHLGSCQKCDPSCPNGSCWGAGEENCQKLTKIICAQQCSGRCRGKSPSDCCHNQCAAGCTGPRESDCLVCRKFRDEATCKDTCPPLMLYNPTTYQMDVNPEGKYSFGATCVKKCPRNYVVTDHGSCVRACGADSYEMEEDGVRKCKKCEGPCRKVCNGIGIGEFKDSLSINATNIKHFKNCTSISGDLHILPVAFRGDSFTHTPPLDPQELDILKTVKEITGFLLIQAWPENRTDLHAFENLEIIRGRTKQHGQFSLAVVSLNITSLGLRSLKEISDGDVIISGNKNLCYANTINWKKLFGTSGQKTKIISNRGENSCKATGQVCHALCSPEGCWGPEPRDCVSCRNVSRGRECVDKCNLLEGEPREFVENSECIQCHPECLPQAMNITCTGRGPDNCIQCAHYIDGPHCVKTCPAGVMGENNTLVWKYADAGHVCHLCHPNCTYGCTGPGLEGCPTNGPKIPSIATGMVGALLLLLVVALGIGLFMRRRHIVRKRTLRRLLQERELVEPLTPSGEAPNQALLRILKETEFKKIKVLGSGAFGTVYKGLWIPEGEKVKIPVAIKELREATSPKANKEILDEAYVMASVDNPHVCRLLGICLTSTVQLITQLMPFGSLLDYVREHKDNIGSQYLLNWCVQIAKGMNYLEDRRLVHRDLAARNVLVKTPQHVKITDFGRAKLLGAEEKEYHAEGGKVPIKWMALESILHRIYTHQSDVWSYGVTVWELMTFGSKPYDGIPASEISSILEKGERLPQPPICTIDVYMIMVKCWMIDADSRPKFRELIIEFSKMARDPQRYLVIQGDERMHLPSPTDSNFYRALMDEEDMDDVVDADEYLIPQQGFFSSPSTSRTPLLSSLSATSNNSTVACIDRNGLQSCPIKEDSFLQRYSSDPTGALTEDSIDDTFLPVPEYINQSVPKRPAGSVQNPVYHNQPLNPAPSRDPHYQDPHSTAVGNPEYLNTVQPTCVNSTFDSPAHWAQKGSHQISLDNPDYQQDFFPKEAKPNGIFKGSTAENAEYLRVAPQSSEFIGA
Chain of EGFR L858R/T790M/C797S (P00533 25-1210 T790M/C797S/L858R): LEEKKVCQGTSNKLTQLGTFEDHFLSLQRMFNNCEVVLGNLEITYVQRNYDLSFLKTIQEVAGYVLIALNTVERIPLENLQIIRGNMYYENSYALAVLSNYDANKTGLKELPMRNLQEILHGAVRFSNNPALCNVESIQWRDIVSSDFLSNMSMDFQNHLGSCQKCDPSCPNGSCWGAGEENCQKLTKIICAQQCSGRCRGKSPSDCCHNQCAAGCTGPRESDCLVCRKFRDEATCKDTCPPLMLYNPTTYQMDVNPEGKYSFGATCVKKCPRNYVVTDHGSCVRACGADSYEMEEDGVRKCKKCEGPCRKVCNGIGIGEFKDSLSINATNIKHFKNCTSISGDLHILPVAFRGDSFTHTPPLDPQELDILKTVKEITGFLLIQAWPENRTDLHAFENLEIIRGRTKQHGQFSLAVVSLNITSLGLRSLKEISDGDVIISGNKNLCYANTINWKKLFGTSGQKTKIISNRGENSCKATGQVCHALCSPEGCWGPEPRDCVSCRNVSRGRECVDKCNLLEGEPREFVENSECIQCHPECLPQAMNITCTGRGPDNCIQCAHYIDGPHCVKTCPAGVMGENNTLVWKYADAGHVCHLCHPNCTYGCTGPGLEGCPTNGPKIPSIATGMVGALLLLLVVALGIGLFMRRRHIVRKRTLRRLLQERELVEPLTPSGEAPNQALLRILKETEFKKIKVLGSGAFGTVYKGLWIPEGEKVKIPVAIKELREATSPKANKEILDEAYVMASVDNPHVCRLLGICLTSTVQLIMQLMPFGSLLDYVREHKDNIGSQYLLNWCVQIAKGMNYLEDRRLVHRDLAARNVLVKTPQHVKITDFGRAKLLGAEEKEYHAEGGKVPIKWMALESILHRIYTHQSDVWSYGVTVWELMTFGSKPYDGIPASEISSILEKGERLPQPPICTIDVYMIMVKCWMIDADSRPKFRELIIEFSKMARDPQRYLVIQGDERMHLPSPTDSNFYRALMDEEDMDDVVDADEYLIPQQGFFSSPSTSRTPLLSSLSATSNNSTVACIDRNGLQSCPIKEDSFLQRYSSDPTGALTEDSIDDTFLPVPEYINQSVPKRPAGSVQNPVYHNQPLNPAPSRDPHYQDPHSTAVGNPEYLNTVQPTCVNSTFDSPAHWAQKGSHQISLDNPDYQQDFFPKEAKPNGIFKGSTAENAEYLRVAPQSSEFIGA
Chain of EGFR Del19/C797S (P00533 with tags, fused parts or gaps DEL746-750/C797S): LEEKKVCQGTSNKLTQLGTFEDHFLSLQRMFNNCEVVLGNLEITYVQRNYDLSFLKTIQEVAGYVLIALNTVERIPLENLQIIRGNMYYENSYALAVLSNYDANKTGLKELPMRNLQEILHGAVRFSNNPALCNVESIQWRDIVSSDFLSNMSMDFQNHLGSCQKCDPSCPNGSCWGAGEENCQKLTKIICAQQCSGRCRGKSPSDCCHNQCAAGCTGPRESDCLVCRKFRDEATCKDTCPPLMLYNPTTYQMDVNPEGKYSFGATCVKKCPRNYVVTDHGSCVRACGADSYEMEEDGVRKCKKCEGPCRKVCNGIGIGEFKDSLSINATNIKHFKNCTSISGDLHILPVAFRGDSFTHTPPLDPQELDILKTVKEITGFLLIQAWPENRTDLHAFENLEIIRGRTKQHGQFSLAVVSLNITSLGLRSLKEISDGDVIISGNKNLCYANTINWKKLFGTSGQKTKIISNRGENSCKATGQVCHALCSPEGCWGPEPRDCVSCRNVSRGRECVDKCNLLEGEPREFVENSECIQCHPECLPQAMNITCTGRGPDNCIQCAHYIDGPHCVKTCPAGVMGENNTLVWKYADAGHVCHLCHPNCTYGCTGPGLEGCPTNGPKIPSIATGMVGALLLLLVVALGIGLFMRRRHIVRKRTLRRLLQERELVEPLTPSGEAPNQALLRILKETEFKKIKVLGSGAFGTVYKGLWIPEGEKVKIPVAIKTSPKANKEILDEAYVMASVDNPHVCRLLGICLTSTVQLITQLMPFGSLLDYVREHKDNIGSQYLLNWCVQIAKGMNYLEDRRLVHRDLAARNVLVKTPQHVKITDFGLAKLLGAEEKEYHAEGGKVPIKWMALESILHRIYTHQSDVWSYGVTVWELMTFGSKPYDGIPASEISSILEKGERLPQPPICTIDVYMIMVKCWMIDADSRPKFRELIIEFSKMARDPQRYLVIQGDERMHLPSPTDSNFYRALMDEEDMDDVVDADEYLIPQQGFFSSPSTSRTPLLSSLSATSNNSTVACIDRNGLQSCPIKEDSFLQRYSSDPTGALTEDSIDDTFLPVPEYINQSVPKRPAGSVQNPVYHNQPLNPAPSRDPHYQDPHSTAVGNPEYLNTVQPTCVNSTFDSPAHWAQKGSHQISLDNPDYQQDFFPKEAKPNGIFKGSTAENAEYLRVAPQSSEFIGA

IC50 (EGFR Del19/T790M/C797S; [1])	IC50 (EGFR Del19/T790M/C797S; [2])	IC50 (EGFR Del19/C797S; [3])	IC50 (EGFR Del19/C797S; [4])	IC50 (EGFR wildtype (WT); IC50 WT (nM), 100 μM ATP)	IC50 (EGFR wildtype (WT); [5])	IC50 (EGFR L858R/T790M/C797S; [6])	IC50 (EGFR L858R/T790M/C797S; [7])	IC50 (EGFR L858R/C797S; [8])	IC50 (EGFR L858R/C797S; [9])	SMILES
2.1 nM	4.2 nM	4.9 nM	4.7 nM	651 nM	14.1 nM	0.8 nM	1.4 nM	14.3 nM	1.1 nM	CC1(CO)CCN(c2cc(Nc3ccnc(-c4cnn(S(=O)(=O)C5CC5)c4)n3)ncc2C#Cc2cnn(CC(F)(F)F)c2)CC1 [Example 348, (1-(2-((2-(1-(Cyclopropylsulfonyl)-1H-pyrazol-4-yl)pyrimidin-4-yl)amino)-5-((1-(2,2,2-trifluoroethyl)-1H-pyrazol-4-yl)ethynyl)pyridin-4-yl)-4-methylpiperidin-4-yl)methanol]
1.5 nM	1.5 nM	4.8 nM	2.6 nM	844 nM	9.1 nM	1 nM	0.5 nM	9.4 nM	1.4 nM	CN(C)CCC1CCN(c2cc(Nc3ccnc(-c4cnn(S(=O)(=O)C5CC5)c4)n3)ncc2C#Cc2cnn(CC(F)(F)F)c2)CC1 [Example 349, 2-(1-(Cyclopropylsulfonyl)-1H-pyrazol-4-yl)-N-(4-(4-(2-(dimethylamino)ethyl)piperidin-1-yl)-5-((1-(2,2,2-trifluoroethyl)-1H-pyrazol-4-yl)ethynyl)pyridin-2-yl)pyrimidin-4-amine]
2.8 nM		81.4 nM		> 10000 nM		13.9 nM		954 nM		CC1(C#Cc2cnc(Nc3ccnc(-c4cnn(S(=O)(=O)C5CC5)c4)n3)cc2N[C@H]2CC[C@@H](O)CC2)COC1 [Example 350, (1s,4s)-4-((2-((2-(1-(Cyclopropylsulfonyl)-1H-pyrazol-4-yl)pyrimidin-4-yl)amino)-5-((3-methyloxetan-3-yl)ethynyl)pyridin-4-yl)amino)cyclohexan-1-ol]
1.2 nM	1.6 nM	3.7 nM	4.9 nM	7620 nM	44.2 nM	1.6 nM	0.8 nM	77.8 nM	12.8 nM	CC1(CO)CCN(c2cc(Nc3ccnc(-c4cnn(S(=O)(=O)C5CC5)c4)n3)ncc2C#CC2(O)CCC2)CC1 [Example 351, 1-((6-((2-(1-(Cyclopropylsulfonyl)-1H-pyrazol-4-yl)pyrimidin-4-yl)amino)-4-(4-(hydroxymethyl)-4-methylpiperidin-1-yl)pyridin-3-yl)ethynyl)cyclobutan-1-ol]
0.3 nM	0.3 nM	0.5 nM	0.6 nM	820 nM	5.5 nM	0.2 nM	0.1 nM	9.5 nM	1.6 nM	CC1(CO)CCN(c2cc(Nc3ccnc(-c4cnn(S(=O)(=O)C5CC5)c4)n3)ncc2C#CC2COC2)CC1 [Example 352, (1-(2-((2-(1-(Cyclopropylsulfonyl)-1H-pyrazol-4-yl)pyrimidin-4-yl)amino)-5-(oxetan-3-ylethynyl)pyridin-4-yl)-4-methylpiperidin-4-yl)methanol]
0.2 nM	0.2 nM	0.6 nM	1 nM	> 10000 nM	11.3 nM	0.2 nM	0.1 nM	16.6 nM	3.3 nM	O=S(=O)(C1CC1)n1cc(-c2nccc(Nc3cc(N[C@H]4CC[C@@H](O)CC4)c(C#CC4COC4)cn3)n2)cn1 [Example 353, (1s,4s)-4-((2-((2-(1-(Cyclopropylsulfonyl)-1H-pyrazol-4-yl)pyrimidin-4-yl)amino)-5-(oxetan-3-ylethynyl)pyridin-4-yl)amino)cyclohexan-1-ol]
0.2 nM	0.2 nM	0.5 nM	0.3 nM	1630 nM	5.1 nM	0.2 nM	0.1 nM	8.6 nM	0.8 nM	CC1(CO)CCN(c2cc(Nc3ccnc(-c4cnn(S(=O)(=O)C5CC5)c4)n3)ncc2C#CC2(O)COC2)CC1 [Example 354, 3-((6-((2-(1-(Cyclopropylsulfonyl)-1H-pyrazol-4-yl)pyrimidin-4-yl)amino)-4-(4-(hydroxymethyl)-4-methylpiperidin-1-yl)pyridin-3-yl)ethynyl)oxetan-3-ol]
